Results reported in patent US8791163B2 (McGill University, priority 2006, dated 2014).
Values joined by “and” are separate entries in the source; they are usually repeats but may differ in a detail not shown here. Identical values can stand only once. “Also recorded” adds a separate entry of the source. Like-named read-outs stand apart in the source and are kept apart here.

Key:
[1] = target: T1, cloned human MT1 receptors (Homo sapiens, UniProt P48039); experiment: 2-[125I]iodomelatonin competition binding, human MT1 in NIH3T3 cells; settings: calculated from IC50 by Cheng-Prusoff, mean of at least three determinations
T1 construct: expressed in transfected cells
T1 sequence (P48039 whole entry): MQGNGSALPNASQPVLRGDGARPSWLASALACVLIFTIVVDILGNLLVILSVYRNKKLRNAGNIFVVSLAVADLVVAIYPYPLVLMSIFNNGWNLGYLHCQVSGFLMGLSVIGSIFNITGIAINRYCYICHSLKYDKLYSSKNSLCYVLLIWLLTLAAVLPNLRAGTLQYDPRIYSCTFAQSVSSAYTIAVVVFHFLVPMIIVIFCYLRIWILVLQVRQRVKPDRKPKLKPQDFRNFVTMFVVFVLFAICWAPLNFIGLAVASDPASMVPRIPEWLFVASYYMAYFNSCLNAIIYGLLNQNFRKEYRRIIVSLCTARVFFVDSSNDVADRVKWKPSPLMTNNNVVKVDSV
Method: (§1) Membranes were incubated for 90 min at 37° C. in binding buffer (Tris/HCl 50 mM, pH 7.4). The final membrane concentration was 5-10 μg of protein per tube. […] The pKi values are the mean of at least three independent determinations performed in duplicate. To define the functional activity of the compounds of Formula (I) at the MT1 and MT2 receptor subtypes, [^35S]GTPγS binding assays in NIH3T3 cells expressing human-cloned MT1 or MT2 receptors were performed. The amount of bound [^35S]GTPγS is proportional to the level of analogue-induced G-protein activation and is related to the intrinsic activity of the compound (i.e. a compound of Formula (I)) under study. […] Nonspecific binding was assessed using non-radiolabeled GTPγS (10 μM). […] Basal stimulation is the amount of [^35S]GTPγS specifically bound in the absence of the compounds of Formula (I) and was taken as 100%. […] All of the measurements were performed in triplicate.

[2] = target: T1, cloned human MT1 receptors; experiment: [35S]GTPγS binding assay, NIH3T3 cells expressing human MT1; assay type: biochemical; on MT1 Activity: key: A = agonist; PA = partial agonist; ANT = antagonist; IA = Inverse agonist
Method: as §1

[3] = target: T2, cloned human MT2 receptors (Homo sapiens, UniProt P49286); experiment: [35S]GTPγS binding assay, NIH3T3 cells expressing human MT2; assay type: biochemical; settings: maximal net effect relative to MLT
T2 construct: expressed in transfected cells
T2 sequence (P49286 1-362): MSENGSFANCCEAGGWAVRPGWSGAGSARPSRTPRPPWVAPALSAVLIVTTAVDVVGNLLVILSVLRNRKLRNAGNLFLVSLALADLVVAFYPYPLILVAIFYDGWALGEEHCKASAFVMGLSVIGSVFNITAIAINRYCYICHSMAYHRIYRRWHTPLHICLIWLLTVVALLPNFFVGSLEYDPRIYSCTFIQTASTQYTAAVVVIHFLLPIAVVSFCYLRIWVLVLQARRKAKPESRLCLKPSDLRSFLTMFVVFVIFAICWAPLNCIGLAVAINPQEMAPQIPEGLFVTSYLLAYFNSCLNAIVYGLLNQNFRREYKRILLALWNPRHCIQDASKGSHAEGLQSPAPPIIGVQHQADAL
Method: as §1

[4] = target: T2, cloned human MT2 receptors; experiment: 2-[125I]iodomelatonin competition binding, human MT2 in NIH3T3 cells; settings: human MT2 in NIH3T3 cells; calculated from IC50 by Cheng-Prusoff; mean of at least three determinations
Method: as §1

[5] = tested on: Male rats (Sprague-Dawley); experiment: EEG and EMG sleep recordings (slow wave sleep, REM sleep, wakefulness); assay type: in vivo, rat
Method: Male rats (Sprague-Dawley) weighing approximately 300-340 g were used for surgical implantation of electroencephalogram (EEG) and electromyogram (EMG) electrodes. Following the recovery from surgery, the animals were housed separately in cages and kept on a 12-hour light/dark cycle (12 h light-12 h dark, 7:30 AM lights on) at a controlled temperature (21° C.). The rats had free access to food and water ad libitum.
Rats were anaesthetized using equithesin (425 mg chloral hydrate, 1 ml 100% ethanol, 98 mg pentobarbitone, 213 mg magnesium sulphate and 3 ml propylene glycol, sterile water per 10 ml of solution; 1 ml per 300 g body weight i.p.) and placed in a stereotactic frame. The skull was exposed and carefully cleaned. Two stainless-steel epidural electrodes were implanted for the registration of the EEG under stereotactic control, through 1.5 mm burr holes at the coordinates corresponding to the right parietal-occipital cortex (AP=−2 mm L=3 mm; AP=−7 mm L=3 mm) and the left parietal-occipital cortex (AP=−4.5 mm L=3 mm) according to the atlas by Paxinos (The Rat Brain in Stereotaxic Coordinates, Academic Press, 1995). Three stainless steel wire electrodes, isolated except for the last few millimeters, were implanted into the neck muscles (two bilaterally and one in the middle) for the monitoring of the EMG. The EEG epidural electrodes and the EMG wires were fitted to a six-pin female connector. For fixation to the skull, the wires and connector were covered with dental acrylic (Coltene/Whaledent Inc. USA). The animals were allowed to recover from the surgery for at least 3-4 days.
Twenty-four hours (24 h) following the surgery, the rats were placed in the recording room from noon to 9:00 PM, for 3-4 days. The rats were connected to the 6-flat cable (3M), in a freely-moving manner, from 6:00 PM to 9:00 PM for habituation. No recordings were performed at this time, however, the tolerance to the cable and the sleep behavior were observed.
Following 3-4 days of habituation, the rats received the injection of a vehicle (DMSO/saline 7:3, 0.2 ml s.c.) at 6:00 PM and the recording was carried out until 9:00 PM. On the following day the rats received diazepam (2 mg/kg, s.c.) at 6:00 PM and the recording was performed until 9:00 PM. Four days following the injection of diazepam, the rat received 5b (40 mg/kg s.c.) and the recording also performed from 6 to 9 PM.
For each experiment, a rat was placed individually in the cage and monitoring of the signal was carried out via the attachment of a non-restraining 6-wire flat cable and a female connector, which was connected to an impedance transformer with a gain of 10, located above the cage. The EEG signal was amplified (resulting in a total gain of 10,000) and locally filtered. The EMG signal was amplified as the EEG, (EEG: low filter 1.0 Hz; high 1 KHz, EMG: low filter 30.0 Hz; high 3 KHz). The power spectra analysis was performed for identification of the sleep stages. The behavior of the animals was observed during the experiment (eye movements, ambulation, rearing etc.).
The three classical vigilance-sleep states described in the rat were discriminated on the basis of the cortical EEG and neck EMG, following the classification by Ruigt et al. (Electroencephalography and clinical Neurophysiology, 1989, 73: 52-63). Wakefulness was identified by a low-amplitude and desynchronized EEG with sustained EMG activity. Slow wave sleep (SWS, includes Quiet sleep, deep sleep and Pre-REM) was clearly distinguished by high-voltage delta waves (2-4 Hz) and spindles associated with a […] EMG activity. Pre-REM sleep was characterized by a clear theta rhythm in the EEG, frequently alternating with short lasting, high voltage spindles. REM sleep was characterized by a low-amplitude EEG with a pronounced theta rhythm (5.5-8.5 Hz), a complete loss of muscle tone, and a low voltage EMG. […]

[6] = tested on: Adult Sprague Dawley rats; experiment: Elevated plus maze (EPM); assay type: in vivo, rat; settings: diazepam 2 mg/kg, injected 45 min before test
Method: The maze is comprised of two open arms (50×10 cm) and two closed arms (50×10×40 cm) that extend from a common central platform (10×10 cm). The apparatus, made of wood (painted black) was elevated to a height of 80 cm above floor level. The closed arms are located opposite one another. Behavior is recorded over a period of 5 min using a video camera positioned directly above the maze and rated by an observer blind to drug conditions. The major measure of interest is the amount of time spent in the open arms. As an index of general activity and distribution, the total number of entries into both open and closed arms was also recorded. […] In order to increase the sensitivity of this test to anxiolytic activity, tests are carried out under normal room illumination (25 W bulb).

Sprague Dawley rats = experiment: Novelty-Induced Suppressed Feeding (NSF) Test; assay type: in vivo, rat; settings: diazepam 2 mg/kg s.c., 45 min before the test
Method: The NSF test is used to assess the anti-anxiety effect of a drug [Bodnoff et al. Psychopharmacology 1988, 95(3), 298-307]. Sprague Dawley rats were used in the NSF test. The testing apparatus comprises a brightly lit open area covered with lab chow pellets. Forty-eight hours prior to behavioral testing, all food was removed from the apparatus. Animals treated with compound 5b (40 or 80 mg/kg) were injected 60 min before the test, whereas animals treated with vehicle (DMSO/saline 7:3) or diazepam were injected 45 min before the test. The drugs were administered subcutaneously and the experiments were conducted after 5:30 PM. The latency to feed, defined as chewing the food as opposed to merely sniffing or playing with a pellet, was then recorded (Table 6). The experiment was terminated for those animals that had not begun eating within a period of 360 seconds, which animals were assigned a latency score of 360 seconds. All analyses were conducted using Sigma Stats and SPSS software. The results are expressed as the mean±SEM per n (number) animals tested (*, p<0.01, ANOVA or t test).

[7] = diazepam 2 mg/kg s.c., Mean ± SEM of 11 rats
[8] = diazepam 2 mg/kg s.c., Mean ± SEM of 11 rats, listed as diazepam
[9] = diazepam 2 mg/kg s.c., individual rats 1-11

## CC(=O)NCCN(c1ccccc1)c1ccccc1 [5a, N-[2-(diphenylamino)ethyl]acetamide]
[1]
  MT1 pKi: 6.90 ± 0.04
other
  melting point: 44 to 45 °C
[2]
  MT1 Activity: ANT
[2]; maximal net effect relative to MLT
  MT1 IAr ± SEM (relative intrinsic activity): 0.10 ± 0.03
[3]
  MT2 IAr ± SEM (relative intrinsic activity): 0.57 ± 0.04
[4]
  MT2 pKi: 8.41 ± 0.13

## CN1C(=O)CN=C(c2ccccc2)c2cc(Cl)ccc21 [Diazepam]
[5]
  Slow Wave Sleep Duration: 58.45 min and 89.15 min and 84 min and 105.18 min and 99.03 min and 103.14 min and 92.36 min and 114.55 min and 94.85 min and 88.22 min and 83.9 min
  Slow Wave Sleep Latency: 18.02 min and 3.98 min and 8.25 min and 2.86 min and 6.93 min and 3.06 min and 18.42 min and 13.59 min and 22.5 min and 6.51 min and 26.36 min
  Wakefulness Duration: 69.58 min and 73.27 min and 68.04 min and 83.4 min and 62.00 min and 82.58 min and 85.76 min and 66.32 min and 115.52 min and 71.04 min and 80.79 min
[5]; [7]
  REM Sleep Duration: 6.5 ± 0.7 min
  REM Sleep Latency: 74.5 ± 5.2 min
  REM Sleep Mean of a Single Episode: 1.43 ± 0.11 min
  REM Sleep Number (episodes): 4.6 ± 0.5 episodes
  Slow Wave Sleep Duration: 92.0 ± 4.4 min
  Slow Wave Sleep Mean of a Single Episode: 5.4 ± 0.38 min
  Slow Wave Sleep Number (episodes): 18.0 ± 1.6 episodes
  Wakefulness Duration: 78.2 ± 4.43 min
  Wakefulness Mean of a Single Episode: 2.7 ± 0.84 min
  Wakefulness Number (episodes): 17.0 ± 1.52 episodes
[5]; [8]
  REM Sleep Duration (min): significantly decreases
  REM Sleep Latency (min): significantly increases
  REM Sleep Number (episodes): significantly decreases
  Slow Wave Sleep Duration (min): increase the duration of the SWS; also recorded: significantly increases
  Slow Wave Sleep Latency (min): significantly decreases
  Slow Wave Sleep Mean of a Single Episode (min): significantly increase
  Slow Wave Sleep Number (episodes): no influence
  Wakefulness Duration (min): significantly decreases
  Wakefulness Number (episodes): no influence
[5]; [9]
  REM Sleep Duration: 6.04 min and 5.45 min and 12.03 min and 5.18 min and 7.71 min and 8.81 min and 4.23 min and 5.86 min and 2.55 min and 8.52 min and 5.62 min
  REM Sleep Latency: 102.43 min and 56.83 min and 56.59 min and 96.4 min and 61.69 min and 93.4 min and 72.26 min and 86.41 min and 58.92 min and 73.3 min and 61.33 min
  REM Sleep Mean of a Single Episode: 1.51 min and 1.816 min and 1.718 min and 1.295 min and 1.542 min and 0.978 min and 1.05 min and 1.465 min and 0.85 min and 2.13 min and 1.405 min
  REM Sleep Number (episodes): 4 episodes (6×) and 3 episodes (2×) and 7 episodes and 5 episodes and 9 episodes
  Slow Wave Sleep Mean of a Single Episode: 6.49 min and 7.42 min and 3.11 min and 5.53 min and 4.3 min and 5.15 min and 4.39 min and 4.98 min and 6.77 min and 5.18 min and 6.45 min
  Slow Wave Sleep Number (episodes): 9 episodes and 12 episodes and 27 episodes and 19 episodes and 23 episodes (2×) and 20 episodes and 21 episodes and 14 episodes and 17 episodes and 13 episodes
  Wakefulness Mean of a Single Episode: 12.83 min and 5.92 min and 4.03 min and 3.66 min and 3.05 min and 4.00 min and 3.79 min and 2.69 min and 5.5 min and 5.71 min and 6.02 min
  Wakefulness Number (episodes): 9 episodes and 12 episodes and 20 episodes and 19 episodes and 24 episodes and 17 episodes and 22 episodes and 23 episodes and 15 episodes (2×) and 11 episodes
[6]
  Head Dips: 11.37 ± 2.12 (P = 0.01)
  Percentage of time in Closed Arms: 67.75 ± 5.87 (P = 0.007) %
  Percentage of time in Open Arms: 32.25 ± 5.9 (P = 0.006) %
  Total time duration in the Closed Arms: 178.71 ± 18.16 (P = 0.006) sec/closed arm
  Total time duration in the Open Arms: 122.0 ± 18.0 (P = 0.008) sec/open arm
[6]; listed as diazepam
  Head Dips: increase in the number of head dips
Sprague Dawley rats
  Latency (sec) to feed: 36.10 ± 15.32 (P ≦ 0.001)* sec
Sprague Dawley rats; listed as diazepam
  Latency (sec) to feed: decreased latency to feed
